# Laboratory results: patent US6955818B1, “Pour-on formulations” (Eli Lilly and Company, priority 1999, dated 2005)
# “Also recorded” adds a separate entry of the source.
# Experiments:
# [1] = tested on: Merino sheep skin; test: Pour-on carrier/vehicle sheep skin irritation studies (histological scoring); type: in vivo; settings: for Mean skin irritation scores: 1 mL applied to skin of recently shorn Merino sheep, histological score 0-15 (0 no change, 15 very severe damage; normal 2-4, >4 abnormal, >7 very abnormal); for skin irritancy / histological dermatitis (in words): applied to skin of recently shorn Merino sheep, histology
# Protocol: Studies were conducted to investigate and characterise the changes occurring in Merino sheep skin following the application of a range of candidate pour-on formulation components in order to discern safe carriers. Chemicals, emollients, wool grease derivatives and a wide range of formulations were applied (in 1 mL volumes) to each of 18 sites on the back and flanks of 15 recently shorn Merino sheep.
# In the first study, skin samples were collected at necropsy 3½weeks after application. In subsequent studies, skin samples were collected 2 weeks after application. Standard haematoxylin and eosin stained sections were prepared from each piece of treated skin. A histological scoring system was devised to allow comparison of treatments. Each skin was assessed for the degree of hyperkeratosis, acanthosis and inflammatory cell infiltrate of the superficial dermis and given a rating score from 0–15. A score of 0=no change through to a score of 15 for very severe damage. Normal skin scored 2–4, >4 was abnormal and >7 was very abnormal. Treatments yielding a score ? 4.5 were considered safe. […]
# [2] = Example 5: diffusion of 14C-zeta-cypermethrin on sheep skin in a variety of carriers; type: in vivo; settings: 1 mL/5 kg on backline of sheep; for spread of zeta-cypermethrin from the backline (in words): carrier with 10 mg/mL 14C-spiked zeta-cypermethrin, wool at 2, 7.5, 15 cm meridians up to day 14
# Protocol: This study compared the amount and rate of diffusion of ^14C-labelled zeta-cypermethrin from the dorsal midline of sheep, when applied in wool grease, in an aqueous formulation and in a range of test carriers.
# Each formulation was applied to the backline of three sheep at 1 mL/5 kg body weight. Wool was collected from three 12×12-mm squares chosen at random, along meridian lines drawn 2, 7.5 and 15 cm down the side of each sheep from the backline. The wool samples were collected at 1, 2, 4, 8, 11 and 14 days after treatment, and each day's samples were pooled. The clipped areas were also swabbed. At day 14 after treatment, the wool at the site of application was collected and back and perirenal fat samples were collected. The quantity of zeta-cypermethrin in each sample was measured by liquid scintillation counting.
# [3] = Example 12: physical characteristics and freezing points of solvents and solvent combinations; type: physicochemical; settings: vehicle alone
# Protocol: The physical characteristics of various individual solvents and solvent combinations were determined.
# [4] = tested on: Bovicola ovis; test: Example 3: spinosad in a variety of carriers as pour-on, lice control on sheep housed indoors; type: in vivo; settings: carrier containing spinosad, 0.4 mg/kg, 1 mL/5 kg
# Protocol: The aim of this study was to select the most efficacious of a range of eight formulations that were selected on the basis of safety, physical properties, efficacy, cost and theories of dermal insecticide spread.
# Each formulation was prepared to provide spinosad at a dose of 0.4 mg/kg and applied at a rate of 1 mL/5 kg of body weight.
# [5] = tested on: Bovicola ovis (highly synthetic pyrethroid (SP) resistant, Hartley strain of lice); test: Example 2: wool grease formulations and IPM with zeta-cypermethrin and spinosad, lice control on sheep; type: in vivo; settings: for efficacy at eight weeks: 2 mL/10 kg
# Excerpt: The purposes of this study were to evaluate wool grease as a formulation to deliver spinosad, to determine the dose required to kill 100% of lice in sheep and to evaluate the suitability of the formulation to deliver zeta-cypermethrin, compared with an isopropyl myristate (IPM) formulation.
# Sheep were heavily infested with the highly synthetic pyrethroid (SP) resistant, Hartley strain of lice. Sheep were shorn, lice counted and sheep allocated to ten groups of six sheep, each divided into three groups of two per treatment. All sheep were treated at the rate of 2 mL of test formulation/10 kg of body weight. Treatments were, respectively: wool grease only; 2 mg/kg deltamethrin and 4 mg/kg alphacypermethrin in commercial formulations; spinosad in wool grease at 0.08 mg/kg, 0.4 mg/kg, 2 mg/kg and 10 mg/kg; zeta-cypermethrin in wool grease at 0.66 mg/kg and 2 mg/kg; and spinosad in IPM at 0.4 mg/kg. Lice numbers were counted weekly for eight weeks.
# [6] = tested on: Bovicola ovis (Hartley, Claremont, susceptible and slightly resistant strains); test: Example 6: zeta-cypermethrin in a variety of carriers, lice control on sheep; type: in vivo; settings: for lice control, susceptible strain (in words): sheep infested with SP-susceptible strain
# Protocol: These studies were devised to determine the efficacy of zeta-cypermethrin (at 2 mg/kg of body weight) in several nonaqueous formulations, and a commercial formulation of deltamethrin, on sheep infested with a severely synthetic pyrethroid (SP) resistant (Hartley) strain and a moderately SP resistant (Claremont) strain of Bovicola ovis. Some additional studies were undertaken with susceptible and slightly resistant lice to determine whether zeta-cypermethrin was able to kill lice under optimum conditions.
# [7] = tested on: Bovicola ovis; test: Example 4: therapeutic efficacy and dose titration of spinosad pour-on, sheep housed outdoors; type: in vivo; settings: 1 mL/5 kg
# Protocol: This study was carried out to select the dose of spinosad required to eradicate sheep body lice when applied as a pour-on in OP/IPM/OSU (70:15:15) containing 5% oleic acid, and to compare the efficacy of spinosad at 0.4 mg/kg in a suspension concentrate (SC) formulation applied as a pour-on with that of the pour-on organic solvent formulation. The spinosad formulations were applied at 1 mL/5 kg and at 0, 0.2, 0.4, 0.8, 1.6 and 3.2 mg/kg to 6 groups of 6 recently shorn sheep that were housed outdoors for 6 weeks.
# [8] = 2 mg/kg (deltamethrin in commercial formulation; zeta-cypermethrin in wool grease)
compound,measurement,setting,value
CC(=O)CC(C)(C)O [Diacetone alcohol],Mean skin irritation scores,[1],2
same,skin irritancy / histological dermatitis (in words),[1],non-irritant
"CCCCOCCOCCO [DB, diethylene glycol n-butyl ether]",Mean skin irritation scores,[1],7
same,skin irritancy / histological dermatitis (in words),[1],highly irritant
CCCCCCCCCCC(CO)CCCCCCCC (centres unmarked) [2-octyl-dodecanol],skin irritancy / histological dermatitis (in words),[1],highly irritant
"COC(C)COC(C)CO (centres unmarked) [DPM, dipropylene glycol methyl ether]",Mean skin irritation scores,[1],4
same,skin irritancy / histological dermatitis (in words),[1],mild to moderate dermatitis
"CCCCCCCCCCCCCCCCCC(=O)OCCCCCCCC [OS, octyl stearate]",spread of zeta-cypermethrin from the backline (in words),[2],modest spread; also recorded: better spread
same,Physical Properties (in words),[3],"spreads, lubricant"
"CCCCCCCCCCCCCC(=O)OC(C)C [IPM, isopropyl myristate]",Mean skin irritation scores,[1],8
same,skin irritancy / histological dermatitis (in words),[1],severe dermatitis
same,efficacy by the end of the study,[4],about 90%
same,spread of zeta-cypermethrin from the backline (in words),[2],greatest spread; also recorded: best spread
same,skin reaction at the site of application,[2]; carrier with 10 mg/mL zeta-cypermethrin,severe scabbing/crusting of the skin
same,freezing point,[3],−2 to −6 °C
CC1(C)C(C=C(Cl)Cl)C1C(=O)OC(C#N)c1cccc(Oc2ccccc2)c1 (centres unmarked) [zeta-cypermethrin],efficacy at eight weeks,[5]; 0.66 mg/kg (zeta-cypermethrin in wool grease),0%
same,efficacy at eight weeks,[5]; [8],43%
same,lice control compared with the other treatments (in words),[5]; weekly counts for eight weeks,no significant differences in efficacy at eight weeks; also recorded: better lice control than the commercial pour-ons for the first 5 weeks
same,"lice control, lice with high and moderate resistance to SPs (in words)","[6]; 2 mg/kg zeta-cypermethrin in nonaqueous formulations, commercial deltamethrin, Hartley and Claremont strains",did not give adequate control
same,"lice control, susceptible strain (in words)",[6]; zeta-cypermethrin 2 mg/kg pour-on,did control
same,"lice control, susceptible strain (in words)","[6]; zeta-cypermethrin 2 mg/kg pour-on, listed as Zeta-cypermethrin",eradicated lice
same,"lice control, mildly resistant strain (in words)","[6]; zeta-cypermethrin 2 mg/kg pour-on, sheep infested with mildly resistant strain",excellent control
"CCCCCCCCCCCCCCCC(=O)OCCCCCCCC [OP, octyl palmitate]",Mean skin irritation scores,[1],3.3
same,skin irritancy / histological dermatitis (in words),[1],non-irritant
same,Physical Properties (in words),[3],"spreads, lubricant"
propylene glycol dicaprylate dicaprate,skin irritancy / histological dermatitis (in words),[1],highly irritant
CCCCCCCC/C=C\CCCCCCCC(=O)OC [methyl oleate],skin irritancy / histological dermatitis (in words),[1],highly irritant
isocetyl stearate [ICS],skin irritancy / histological dermatitis (in words),[1],mild to moderate dermatitis
CC1(C)[C@H](C(=O)O[C@H](C#N)c2cccc(Oc3ccccc3)c2)[C@@H]1C=C(Br)Br [deltamethrin],efficacy at eight weeks,[5]; [8],8%
CC1(C)C(C=C(Cl)Cl)C1C(=O)OC(C#N)c1cccc(Oc2ccccc2)c1 (centres unmarked) [alphacypermethrin],efficacy at eight weeks,[5]; 4 mg/kg (alphacypermethrin in commercial formulation),9%
spinosad,Efficacy (%) at Day 41,[7]; spinosad 0.2 mg/kg in OP/IPM/OSU (70:15:15) with 5% oleic acid,37%
same,Efficacy (%) at Day 41,[7]; spinosad 0.4 mg/kg in OP/IPM/OSU (70:15:15) with 5% oleic acid,46%
same,Efficacy (%) at Day 41,[7]; spinosad 0.8 mg/kg in OP/IPM/OSU (70:15:15) with 5% oleic acid,78%
same,Efficacy (%) at Day 41,[7]; spinosad 1.6 mg/kg in OP/IPM/OSU (70:15:15) with 5% oleic acid,37%
same,Efficacy (%) at Day 41,[7]; spinosad 3.2 mg/kg in OP/IPM/OSU (70:15:15) with 5% oleic acid,93%
